These results are taken from a melting point compilation (Tetko et al.; mined from patent text by program, amines drawn as free bases though some values may be those of a salt).

Where only a bound is given, the exact number is not on record here.

As to `CC(C)NC1=NS(=O)(=O)c2ccc(S(=O)(=O)c3ccccc3)cc2N1`, the melting point (as a rule, the temperature of the solid-liquid transition) was 178 to 180 °C.

For the compound `CCCCCCCCCCCCCCOc1ccc(CN)cc1`, the melting point fell in the range of 62 to 64 °C.

Turning to `CC(=O)c1cccc(C2=C(c3ccc(S(C)(=O)=O)cc3)OC(C)(C)C2=O)c1`, the melting point fell in the range of 189 to 190 °C.

In the case of `O=C1CCc2ccc(OC/C=C/CN3CCN(c4cccc(Cl)c4Cl)CC3)cc2N1`, the melting point was 151 to 152 °C.

The compound `Nc1nnc(-c2ccc(C(F)(F)F)cc2)n1-c1cc(Cl)ccc1O` registered a melting point of 147 to 155 °C.

With `CCCCOc1c2ccccc2c(C=O)c2ccccc12`, the melting point lay within 65 to 67 °C.

With `CC/C(=C\CCC(O)(CC)CC)c1ccc(COc2ccc(CO)c(CO)c2)s1`, the melting point amounted to 82 °C.

As to `C#CCOC(=O)CCC(C)(c1ccc(O)cc1)c1ccc(O)cc1`, the melting point lay within 99.5 to 101 °C.

For the compound `CC(C)(C)OC(=O)NCCc1ccnc(-c2nc(=O)c3ccccc3s2)c1`, the melting point is 160 to 161 °C.

The compound `CNCCOc1ccc(NC(=O)c2ccc(N3CCNCC3)cc2)c(C)c1` came in with a melting point of 136 to 137 °C.

In turn, `COc1ccc(N(C=C(C#N)C#N)N=C(C#N)C#N)cc1` returned a melting point of 143 to 145 °C.

In turn, `O=C(O)c1cccnc1NCCSCc1nccs1` had a melting point of 133 to 134 °C.

In the case of `Cc1[nH]c2ccc(Br)cc2c1-c1ccncc1`, the melting point is 248 °C.

Take `O=C1c2ccccc2C(=O)N1CSc1ccncc1`: the melting point was 133 to 134 °C.

For `COc1ccc(-c2nnc3c4ccccc4c(CC#N)nn23)cc1`, the melting point lay within 252 to 254 °C.

`CC(C)[C@H](NC(=O)N(C)Cc1cccnc1)C(=O)N[C@@H](Cc1ccccc1)C[C@H](O)[C@H](Cc1ccccc1)NC(=O)[C@@H](NC(=O)N(C)Cc1cccnc1)C(C)C` registered a melting point of 193 to 196 °C.

Turning to `Fc1cc(F)c2c(c1)CCC(n1cc[nH]c1=S)C2` (stereo not drawn), the melting point was in the range of 260 to 261 °C.

On to `Cc1cc2c(C)cc(-c3ccccc3Cl)nc2nc1-c1ccccc1`, for which the melting point is 151 to 153 °C.

Take `Cc1cc2c(-c3ccccc3)c(CCO)n(C)c(=O)c2cc1C`: the melting point is 204 to 207 °C.

In the case of `Oc1cc2cc(-c3ccccc3)sc2c(Cl)c1Cl`, the melting point was in the range of 122 to 124 °C.

In turn, `C[C@@H]1CN(CCNC(=S)N(C)C)CC[C@@H]1Nc1nc2ccccc2n1Cc1ccc(F)cc1` (relative stereo) gave a melting point of 127 °C.

For `CC(=O)ON1Cc2ccccc2C1=O`, the melting point lay within 69 to 71 °C.

`CC1(C)CC(NC(=O)C(=O)NCCO)CC(C)(C)N1OC1CCCCC1`: the melting point was in the range of 190 to 192 °C.

Compound `Cc1nc(-c2ccc(C#N)cc2)sc1C(=O)N[C@H](C)[C@](O)(Cn1ccnc1)c1ccc(F)cc1F` had a melting point of 126 to 128 °C.

For `COc1cc(OC)nc(-n2ncn(N)c2=O)n1`, the melting point turned out to be 238 °C.

In the case of `COc1ccc(C(=O)N2CCN(c3ccc([N+](=O)[O-])c(C=O)c3)CC2)cc1OC`, the melting point lay within 196 to 198 °C.

Regarding `CCCSc1nc(N)c2ncn(C3C=CCCC3)c2n1` (stereo not drawn), the melting point fell in the range of 108 to 113 °C.

`CCC(=O)c1ccc(CN2C(=O)c3ccccc3C2=O)s1` had a melting point of 104 to 106 °C.

On to `CCCOCC(=O)c1ccc([N+](=O)[O-])cc1`, for which the melting point lay in the range of 49 to 50 °C.

In the case of `CN1C(=O)C(=C2CCN(Cc3ccccc3)CC2)c2ccccc21`, the melting point was in the range of 101 to 102 °C.

The compound `CCOP(=O)(Cc1ccc(NC(=O)/C=C/c2cnn(Cc3ccccc3)c2-c2ccc(F)cc2)cc1)OCC` gave a melting point of 207 to 208 °C.

Take `CCN(C(C)C)C(C)CC1=C(c2ccc(OC)cc2)CCCNC1=O` (stereo not drawn): the melting point was in the range of 64 to 66 °C.

On to `CC(C)(C)C#CC(O)(Cn1cncn1)C(C)(C)C` (stereo not drawn), for which the melting point was in the range of 114 to 118 °C.

Take `CC1=NC=CC(=O)C1OCc1ccccc1` (stereo not drawn): the melting point lay in the range of 162 to 163 °C.

Regarding `COC(=O)c1cc2cc(OC)c(OC)cc2c(-c2ccnc(-n3c(=O)ccc4ccccc43)c2)c1C(=O)OC`, the melting point is above 230 °C.

Take `CC1(C)CCC(C)(C)c2cc(C3NC(=O)NC3=O)ccc21` (stereo not drawn): the melting point is 213 to 214 °C.

Take `O=C(Nc1ccc(Cl)nc1)N1CCc2ccccc2CC1`: the melting point was 170 to 172 °C.

`COC(=O)c1ccccc1S(=O)(=O)NC(=O)N1NC(=O)N(O)C1OC` (stereo not drawn) displayed a melting point of 180 °C.

Compound `CCOc1cccc(-c2ccnc(Nc3cccc(OC(F)(F)C(F)F)c3)n2)c1` had a melting point of 88 to 96 °C.

For `COc1cccc(OC)c1-c1cc(C(=O)NC2(C(=O)O)C3CC4CC(C3)CC2C4)nn1-c1ccnc2cc(Cl)ccc12` (stereo not drawn), the melting point is above 260 °C.

In the case of `CC1(C)C(=CC=C2C(=O)c3ccccc3C2=C(C#N)C#N)N2CCc3cccc1c32`, the melting point turned out to be 277 °C.

Consider `O=S1(=O)CCC=C(O)c2cc(Cl)ccc21`, for which the melting point fell in the range of 166 to 168 °C.

`COc1ccc2c(c1)CC(CC(C)=O)C2=O` (racemic) came in with a melting point of 73 °C.

In turn, `Nc1ncnc2c1c(Cl)cn2COCCO` gave a melting point of 149 to 150 °C.

Turning to `COCCOc1cc(CCC(=O)O)n(Cc2ccc(Cl)cc2Cl)n1`, the melting point is 111 to 113 °C.

Compound `CCOC(=O)C(Cc1ccc(NC(C)=O)c([N+](=O)[O-])c1)(NC(C)=O)C(=O)OCC` showed a melting point of 172 °C.

`CCOCCn1c(N2CCCN(CCC3(c4ccccc4)CCN(C(=O)c4cc(OC)c(OC)c(OC)c4)C3)CC2)nc2ccccc21` (stereo not drawn): the melting point was 82 to 94 °C.

`COc1cccc(SCCC(=O)O)c1` yielded a melting point of 39 to 42 °C.

`Cc1ccn(-c2ccc(C)c(C(=O)N3Cc4cccnc4Nc4ccccc43)c2)n1`: the melting point is 209 to 210 °C.

As to `COc1cc2nc(N3CCN(C(=O)NC4CCCC4)CC3)nc(N)c2cc1OC`, the melting point was in the range of 200 to 202 °C.

The compound `CC(C)(C)C(O)(Cn1cncn1)C(=O)C=Cc1ccc(Cl)cc1` (stereo not drawn) showed a melting point of 83 to 85 °C.

Compound `CC1CC(=O)NN=C1c1ccc(-n2ccc(=O)cc2)cc1` (stereo not drawn) registered a melting point of 254 to 256 °C.

With `O=c1c2c([nH]c3ccccc13)C(C1Cc3ccccc3O1)N(c1ncc(-c3ccccn3)cn1)C2` (stereo not drawn), the melting point lay within 201 to 203 °C.

In turn, `O=C([C@H]1CN(Cc2ccccc2)CCN1C(=O)NC1CCCCC1)N(CCCn1ccnc1)Cc1ccccc1` showed a melting point of 89.1 °C.

`Nc1nc(Cl)cc(NCc2ccccc2F)n1`: the melting point fell in the range of 130 to 133 °C.

In the case of `CC(C)NCC(O)COc1ccc2ncsc2c1` (stereo not drawn), the melting point is 132 to 134 °C.

For `CN(C)CCc1[nH]c2ccc(Br)cc2c1CSc1ccccc1`, the melting point fell in the range of 112 to 115 °C.

Take `CCc1cccc(NC(=O)NCC(=O)N(CC(=O)N(C)c2ccccc2)c2ccccc2)c1`: the melting point was 105 °C.

The compound `CCCc1c(C(=O)C2CCCC2)c2ccc(C(N)=O)cc2n1Cc1cc2c(cc1Cl)OCO2` registered a melting point of 236 to 237 °C.

For `CCCCC(CC)CN1C(=O)C(=Cc2cc3sc(-c4ccc(N(c5ccccc5)c5ccccc5)cc4)cc3s2)C(C)=C(C#N)C1=O` (stereo not drawn), the melting point fell in the range of 208 to 213 °C.

Consider `COc1ccc(-c2nc(C(=O)c3ccc(N)c(C(=O)O)c3)n3ccccc23)cc1`, for which the melting point worked out at 296 °C.

On to `O=C(c1ccccc1)C(O)CCl` (stereo not drawn), for which the melting point is 42 to 45 °C.

Regarding `CC(=O)c1nn[nH]c1-c1ccccc1`, the melting point was 117 to 118 °C.

Regarding `N#Cc1c(-c2oc3ccccc3c2Cl)[nH]c(Cl)c1Cl`, the melting point was in the range of 258 to 260 °C.

Turning to `COc1ccc2nccc(CCC[C@@H]3CCN(CCC(F)c4ccccc4)C[C@@H]3C(=O)O)c2c1` (stereo partly drawn), the melting point worked out at 60 °C.

`O=C(Nc1ccc2ccc(Cl)nc2n1)c1ccc(Cl)c(Cl)c1` registered a melting point of 230 °C.

In turn, `COc1cc2c(c(Cl)c1Cl)CCCC2=O` returned a melting point of 150 to 151 °C.

For `CC1(C)Cc2ccc(C#N)cc2N(C(=O)NCc2ccccc2)C1`, the melting point was 162 to 163 °C.

`CC1(C)CC(O)CC(C)(C)N1C#N` yielded a melting point of 96 to 98 °C.

`COc1cc(CC(=O)O)cc(OCCCc2cn(-c3ccc(C(F)(F)F)cn3)nc2C(C)C)c1`: the melting point is 109 to 110 °C.

With `CC(=O)Nc1cc2c(cc1[N+](=O)[O-])[C@@H](NC(C)=O)[C@H](O)C(C)(C)O2` (relative stereo), the melting point lay in the range of 256 to 259 °C.

Turning to `COc1cc(C)c(Cc2cnc(N)nc2N)cc1OC`, the melting point lay within 223 to 225 °C.

For `COCC(=O)O[C@@H]1[C@@H](c2ccccc2)Nc2c(ccn3c(C)c(C)nc23)[C@@H]1OC`, the melting point lay in the range of 73 to 75 °C.

For `CCc1nnc2c(O)nc3cc(F)ccc3n12`, the melting point was above 300 °C.

Compound `CCc1c(N)c(C(N)=O)nn1CCOC` gave a melting point of 131 °C.

In turn, `FC(F)(F)c1cccc(CSc2nnc(-c3ccc4ncccc4c3)o2)c1` showed a melting point of 158 to 159 °C.

Turning to `SC1CCn2c(CCc3ccccc3)nc3cccc1c32` (stereo not drawn), the melting point is 75.7 to 78.8 °C.

As for `Cc1ccc(OCC(=O)c2cc(C(C)(C)C)c(O)c(C(C)(C)C)c2)c(-n2nc3ccccc3n2)c1`, the melting point lay in the range of 155 to 157 °C.

In turn, `Oc1ccc2c(c1)c1c(n2CCCCCN2CCCCC2)-c2ccccc2SCC1` showed a melting point of 182 °C.

As for `COc1cc2nc(N)nc(-c3cc(Br)c(C)cc3Br)c2cc1OC`, the melting point lay within 282 to 284 °C.

For `CCNc1nc2c(C)sc(C(=O)OC)c2n1Cc1ccc(-c2ccccc2C#N)cc1`, the melting point is 190 to 191 °C.

Regarding `CCN(CCNC(=O)Nc1cc(Cl)ccc1CCc1cc(C(C)(C)C)c(O)c(C(C)(C)C)c1)Cc1ccccc1`, the melting point was in the range of 132 to 133 °C.

In turn, `CC(C)Sc1cc([Si](C)(C)C)oc1C(=O)O` showed a melting point of 181 to 183 °C.

The compound `CCCCn1ncc(/C=C(\Cc2cc3c(cc2OC)CCO3)C(=O)OCC)c1-c1ccc(Cl)cc1O` returned a melting point of 158 to 160 °C.

In turn, `CC(=O)N1CCC(C(=NN)c2ccc(F)cc2F)CC1` showed a melting point of 139 to 142 °C.

In the case of `C=C1COc2c(N3CCN(C)CC3)c(F)cc3c(=O)c(C(=O)O)cn1c23`, the melting point was in the range of 200 to 201 °C.

In turn, `CC(C)c1nc(C(C)C)c(CN2CCN(c3ccccc3)CC2)c(-c2ccc(F)cc2)c1CO` showed a melting point of 111 to 113 °C.

For `CC[C@H](Nn1c([C@H](C)OC)nnc1[C@H](C)OC)C(OC)OC`, the melting point was in the range of 67 to 68 °C.
